#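 Compound exposure: 48 hours, 5 concentrations, 96-well plates. Abbreviation: GI50, concentration required for 50% inhibition of growth.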 Calls of active or inactive are those of the source. Rule as the data show it: active = GI50 up to about 1.1 µM and inactive = higher.
# Assays:
# Test in all cases: growth of human tumour cells (NCI), 48 h
# UO-31 = system: UO-31
# SF-268 = system: SF-268
# 786-0 = system: 786-0
# RPMI-8226 = system: RPMI-8226
# NCI-H460 = system: NCI-H460
# NCI/ADR-RES = system: NCI/ADR-RES
# IGROV-1 = system: IGROV-1
# BT-549 = system: BT-549
# SNB-75 = system: SNB-75
# MDA-MB-231 = system: MDA-MB-231
# SK-MEL-28 = system: SK-MEL-28
# SK-MEL-5 = system: SK-MEL-5
# MDA-N = system: MDA-N
# A498 = system: A498
# UACC-257 = system: UACC-257
# HOP-62 = system: HOP-62
# SF-295 = system: SF-295
# OVCAR-3 = system: OVCAR-3
# U-251 = system: U-251
# TK-10 = system: TK-10
# HT-29 = system: HT-29
# HCT-116 = system: HCT-116
# NCI-H226 = system: NCI-H226
# A549 = system: A549
# UACC-62 = system: UACC-62
# MDA-MB-435 = system: MDA-MB-435
# COLO 205 = system: COLO 205
# K562 = system: K562
# SW-620 = system: SW-620
# SK-OV-3 = system: SK-OV-3
# SN12C = system: SN12C
# RXF 393 = system: RXF 393
# OVCAR-4 = system: OVCAR-4
# EKVX = system: EKVX
# HCT-15 = system: HCT-15
# MOLT-4 = system: MOLT-4
# HCC 2998 = system: HCC 2998
# CCRF-CEM = system: CCRF-CEM
# NCI-H23 = system: NCI-H23
# SNB-19 = system: SNB-19
# ACHN = system: ACHN
# PC-3 = system: PC-3
# T47D = system: T47D
# OVCAR-8 = system: OVCAR-8
# Hs-578T = system: Hs-578T
# CAKI-1 = system: CAKI-1
# HL-60 = system: HL-60
# M14 = system: M14
# NCI-H522 = system: NCI-H522
# LOX IMVI = system: LOX IMVI
# OVCAR-5 = system: OVCAR-5
# MCF7 = system: MCF7
# SR = system: SR
# DU-145 = system: DU-145
# HOP-92 = system: HOP-92
# KM12 = system: KM12
# SF-539 = system: SF-539
# Malme-3M = system: Malme-3M
# SK-MEL-2 = system: SK-MEL-2
structure (smiles),measurement,setting,value
c1ccc2c(c1)c1c3n2-c2cc(on2)C3CCC1 (stereo not drawn),GI50,UO-31,> 100 µM (inactive)
same,GI50,SF-268,> 100 µM (inactive)
same,GI50,786-0,> 100 µM (inactive)
same,GI50,RPMI-8226,> 100 µM (inactive)
same,GI50,NCI-H460,> 100 µM (inactive)
same,GI50,NCI/ADR-RES,> 100 µM (inactive)
same,GI50,IGROV-1,> 100 µM (inactive)
same,GI50,BT-549,> 100 µM (inactive)
same,GI50,SNB-75,> 100 µM (inactive)
same,GI50,MDA-MB-231,> 100 µM (inactive)
same,GI50,SK-MEL-28,> 100 µM (inactive)
same,GI50,SK-MEL-5,> 100 µM (inactive)
same,GI50,MDA-N,> 100 µM (inactive)
same,GI50,A498,> 100 µM (inactive)
same,GI50,UACC-257,> 100 µM (inactive)
same,GI50,HOP-62,> 100 µM (inactive)
same,GI50,SF-295,> 100 µM (inactive)
same,GI50,OVCAR-3,> 100 µM (inactive)
same,GI50,U-251,> 100 µM (inactive)
same,GI50,TK-10,> 100 µM (inactive)
same,GI50,HT-29,> 100 µM (inactive)
same,GI50,HCT-116,> 100 µM (inactive)
same,GI50,NCI-H226,> 100 µM (inactive)
same,GI50,A549,> 100 µM (inactive)
same,GI50,UACC-62,> 100 µM (inactive)
same,GI50,MDA-MB-435,> 100 µM (inactive)
same,GI50,COLO 205,98.4 µM (inactive)
same,GI50,K562,> 100 µM (inactive)
same,GI50,SW-620,> 100 µM (inactive)
same,GI50,SK-OV-3,> 100 µM (inactive)
same,GI50,SN12C,> 100 µM (inactive)
same,GI50,RXF 393,> 100 µM (inactive)
same,GI50,OVCAR-4,> 100 µM (inactive)
same,GI50,EKVX,> 100 µM (inactive)
same,GI50,HCT-15,> 100 µM
same,GI50,MOLT-4,70.1 µM (inactive)
same,GI50,HCC 2998,> 100 µM (inactive)
same,GI50,CCRF-CEM,82.6 µM (inactive)
same,GI50,NCI-H23,> 100 µM (inactive)
same,GI50,SNB-19,> 100 µM (inactive)
same,GI50,ACHN,> 100 µM (inactive)
same,GI50,PC-3,> 100 µM (inactive)
same,GI50,T47D,> 100 µM (inactive)
same,GI50,OVCAR-8,> 100 µM (inactive)
same,GI50,Hs-578T,> 100 µM (inactive)
same,GI50,CAKI-1,> 100 µM (inactive)
same,GI50,HL-60,> 100 µM (inactive)
same,GI50,M14,> 100 µM (inactive)
same,GI50,NCI-H522,> 100 µM (inactive)
same,GI50,LOX IMVI,> 100 µM (inactive)
same,GI50,OVCAR-5,> 100 µM (inactive)
same,GI50,MCF7,> 100 µM (inactive)
same,GI50,SR,> 100 µM (inactive)
same,GI50,DU-145,> 100 µM (inactive)
same,GI50,HOP-92,> 100 µM (inactive)
same,GI50,KM12,> 100 µM (inactive)
same,GI50,SF-539,> 100 µM (inactive)
same,GI50,Malme-3M,> 100 µM (inactive)
same,GI50,SK-MEL-2,> 100 µM (inactive)
Oc1cccc2cc(Br)cnc12,GI50,UO-31,6.98 µM (inactive)
same,GI50,SF-268,2.33 µM (inactive)
same,GI50,786-0,31 µM (inactive)
same,GI50,RPMI-8226,3.49 µM (inactive)
same,GI50,NCI-H460,5.89 µM (inactive)
same,GI50,NCI/ADR-RES,3.68 µM (inactive)
same,GI50,IGROV-1,5.09 µM (inactive)
same,GI50,BT-549,28.1 µM (inactive)
same,GI50,SNB-75,18 µM (inactive)
same,GI50,MDA-MB-231,4.35 µM (inactive)
same,GI50,SK-MEL-28,49.2 µM (inactive)
same,GI50,SK-MEL-5,6.5 µM (inactive)
same,GI50,MDA-N,21.7 µM (inactive)
same,GI50,A498,27.5 µM (inactive)
same,GI50,UACC-257,4.78 µM (inactive)
same,GI50,HOP-62,16.2 µM (inactive)
same,GI50,SF-295,6.15 µM (inactive)
same,GI50,OVCAR-3,2.67 µM (inactive)
same,GI50,U-251,8.32 µM (inactive)
same,GI50,TK-10,35.8 µM (inactive)
same,GI50,HT-29,23.1 µM (inactive)
same,GI50,HCT-116,4.97 µM (inactive)
same,GI50,NCI-H226,27.5 µM (inactive)
same,GI50,A549,5.97 µM (inactive)
same,GI50,UACC-62,5.96 µM (inactive)
same,GI50,MDA-MB-435,14.1 µM (inactive)
same,GI50,COLO 205,29.2 µM (inactive)
same,GI50,K562,3.21 µM (inactive)
same,GI50,SW-620,5.28 µM (inactive)
same,GI50,SK-OV-3,41.1 µM (inactive)
same,GI50,SN12C,14.9 µM (inactive)
same,GI50,RXF 393,16.7 µM (inactive)
same,GI50,OVCAR-4,2.86 µM (inactive)
same,GI50,EKVX,5.14 µM (inactive)
same,GI50,HCT-15,4.43 µM
same,GI50,MOLT-4,3.29 µM (inactive)
same,GI50,HCC 2998,27.9 µM (inactive)
same,GI50,CCRF-CEM,2.37 µM (inactive)
same,GI50,NCI-H23,5.92 µM (inactive)
same,GI50,SNB-19,> 39.4 µM (inactive)
same,GI50,ACHN,6.03 µM (inactive)
same,GI50,PC-3,6.68 µM (inactive)
same,GI50,T47D,4.3 µM (inactive)
same,GI50,OVCAR-8,3.45 µM (inactive)
same,GI50,Hs-578T,27.9 µM (inactive)
same,GI50,CAKI-1,24.5 µM (inactive)
same,GI50,HL-60,1.05 µM (active)
same,GI50,M14,9.14 µM (inactive)
same,GI50,NCI-H522,2.49 µM (inactive)
same,GI50,LOX IMVI,4.1 µM (inactive)
same,GI50,OVCAR-5,17.7 µM (inactive)
same,GI50,MCF7,3.18 µM (inactive)
same,GI50,SR,3.42 µM (inactive)
same,GI50,DU-145,28.2 µM (inactive)
same,GI50,HOP-92,16 µM (inactive)
same,GI50,KM12,7.5 µM (inactive)
same,GI50,SF-539,10 µM (inactive)
same,GI50,Malme-3M,7.96 µM (inactive)
same,GI50,SK-MEL-2,24.5 µM (inactive)

# Source: ChEMBL document CHEMBL1201862, “PubChem BioAssay data set” (2004)
